Data published in patent US9346809B2 (LEO PHARMA A/S, priority 2009, dated 2016).
Read-outs that look alike come from different tables or passages of the source.

Key:
Format in all cases: biochemical
[1] = target: T1, TYK2 (aa 871-1187, catalytic domain, GST-tag) (Homo sapiens, UniProt P29597); test: JAK kinase assay (HTRF, phosphorylation of TK substrate-biotin), TYK2; settings: ATP at Km (13 μM)
T1 construct: JAK1 (aa 850-1154) and TYK2 (aa 871-1187) are expressed with an N-terminally fused GST-tag; GST (N); purchased Carna Biosciences, Inc; host or cells: baculovirus expression system
T1 sequence (P29597 871-1187): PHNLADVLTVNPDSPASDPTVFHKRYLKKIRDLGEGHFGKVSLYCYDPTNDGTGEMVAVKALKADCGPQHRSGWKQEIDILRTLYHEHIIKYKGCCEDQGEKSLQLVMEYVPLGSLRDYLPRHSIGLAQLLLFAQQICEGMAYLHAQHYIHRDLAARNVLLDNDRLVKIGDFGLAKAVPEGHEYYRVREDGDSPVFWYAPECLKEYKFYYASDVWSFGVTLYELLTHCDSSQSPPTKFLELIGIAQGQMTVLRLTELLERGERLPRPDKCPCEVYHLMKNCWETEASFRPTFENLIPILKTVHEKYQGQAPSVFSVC
Summary of the method: (§1)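 Catalytic-domain kinases phosphorylated 1 μM biotin-TK substrate at ATP Km (JAK1 7 μM, JAK2 4 μM, JAK3 2 μM, TYK2 13 μM) in Hepes pH 7.0 with DTT and MgCl2, for 20-30 min at RT; JAK1 and TYK2 also had 50 nM SEB. Detection was by HTRF (streptavidin-XL665/Cryptate antibody) overnight, giving EC50.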

[2] = target: T2, JAK2 (catalytic domain, His-tag) (Homo sapiens, UniProt O60674); test: JAK kinase assay (HTRF, phosphorylation of TK substrate-biotin), JAK2; settings: ATP at Km (4 μM)
T2 construct: All four purified enzymes contain only the catalytic domain; His (N); purchased Carna Biosciences, Inc; host or cells: baculovirus expression system
T2 sequence (O60674 849-1124 limits assumed): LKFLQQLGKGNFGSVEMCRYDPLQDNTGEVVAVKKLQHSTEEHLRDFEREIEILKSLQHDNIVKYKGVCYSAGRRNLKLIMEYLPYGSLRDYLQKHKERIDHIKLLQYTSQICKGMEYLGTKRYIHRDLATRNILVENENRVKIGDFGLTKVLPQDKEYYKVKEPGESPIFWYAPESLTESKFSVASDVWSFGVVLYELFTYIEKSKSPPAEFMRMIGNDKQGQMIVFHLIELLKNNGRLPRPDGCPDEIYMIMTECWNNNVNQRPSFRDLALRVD
Summary of the method: as §1

[3] = target: T3, JAK1 (aa 850-1154, catalytic domain, GST-tag) (Homo sapiens, UniProt P23458); test: JAK kinase assay (HTRF, phosphorylation of TK substrate-biotin), JAK1; settings: ATP at Km (7 μM)
T3 construct: JAK1 (aa 850-1154) and TYK2 (aa 871-1187) are expressed with an N-terminally fused GST-tag; GST (N); purchased Carna Biosciences, Inc; host or cells: baculovirus expression system
T3 sequence (P23458 850-1154): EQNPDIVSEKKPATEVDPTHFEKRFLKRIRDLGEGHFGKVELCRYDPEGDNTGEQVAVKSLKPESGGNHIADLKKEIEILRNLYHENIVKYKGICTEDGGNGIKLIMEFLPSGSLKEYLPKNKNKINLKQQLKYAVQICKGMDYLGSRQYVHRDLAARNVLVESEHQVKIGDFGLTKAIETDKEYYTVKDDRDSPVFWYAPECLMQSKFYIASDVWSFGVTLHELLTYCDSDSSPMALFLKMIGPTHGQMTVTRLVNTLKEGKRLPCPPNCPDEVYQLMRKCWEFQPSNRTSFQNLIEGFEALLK
Summary of the method: as §1

[4] = target: T4, JAK3 (catalytic domain, His-tag) (Homo sapiens, UniProt P52333); test: JAK kinase assay (HTRF, phosphorylation of TK substrate-biotin), JAK3; settings: ATP at Km (2 μM)
T4 construct: All four purified enzymes contain only the catalytic domain; His (N); purchased Carna Biosciences, Inc; host or cells: baculovirus expression system
T4 sequence (P52333 822-1111 limits assumed): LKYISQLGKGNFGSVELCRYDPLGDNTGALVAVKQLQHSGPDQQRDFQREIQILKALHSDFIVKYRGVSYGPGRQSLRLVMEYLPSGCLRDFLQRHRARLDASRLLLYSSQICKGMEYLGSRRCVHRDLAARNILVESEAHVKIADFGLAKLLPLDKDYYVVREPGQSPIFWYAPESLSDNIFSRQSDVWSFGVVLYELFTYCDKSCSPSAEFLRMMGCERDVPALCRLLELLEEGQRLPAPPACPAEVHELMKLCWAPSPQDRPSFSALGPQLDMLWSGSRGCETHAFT
Summary of the method: as §1

[5] = read-out: TYK2 kinase inhibitory activity (EC50 indicator)
[6] = read-out: JAK2 kinase inhibitory activity (EC50 indicator)
[7] = read-out: JAK1 kinase inhibitory activity (EC50 indicator)
[8] = read-out: JAK3 kinase inhibitory activity (EC50 indicator)
[9] = HTRF assay, read-out: TYK2 kinase inhibitory activity (EC50 indicator)
[10] = HTRF assay, read-out: JAK2 kinase inhibitory activity (EC50 indicator)
[11] = HTRF assay, read-out: JAK1 kinase inhibitory activity (EC50 indicator)
[12] = HTRF assay, read-out: JAK3 kinase inhibitory activity (EC50 indicator)
[13] = HTRF assay, read-out: TYK2 kinase inhibitory activity (EC50)
[14] = HTRF assay, read-out: JAK2 kinase inhibitory activity (EC50)
[15] = HTRF assay, read-out: JAK1 kinase inhibitory activity (EC50)
[16] = HTRF assay, read-out: JAK3 kinase inhibitory activity (EC50)

Row | Compound | EC50 [1, 5] | EC50 [2, 6] | EC50 [3, 7] | EC50 [4, 8] | EC50 [1, 9] | EC50 [2, 10] | EC50 [3, 11] | EC50 [4, 12] | also measured
1 | O=C(c1cc2cc(F)ccc2[nH]1)N1C2CCC1CN(c1ncnc3[nH]ccc13)C2 [Example 136, (5-Fluoro-1H-indol-2-yl)-[3-(7H-pyrrolo[2,3-d]pyrimidin-4-yl)-3,8-diaza-bicyclo[3.2.1]oct-8-yl]-methanone] | 100 to 500 nM | < 100 nM | < 100 nM | < 100 nM | – | – | – | – | –
2 | O=C(CCc1ccccc1)N1CCN(c2ncnc3[nH]ccc23)CC12CC2 [Example 153, 3-Phenyl-1-[7-(7H-pyrrolo[2,3-d]pyrimidin-4-yl)-4,7-diaza-spiro[2.5]oct-4-yl]-propan-1-one] | > 500 nM | < 100 nM | < 100 nM | 100 to 500 nM | – | – | – | – | –
3 | Cc1c[nH]c2ncnc(N3CCN(C(=O)Cc4ccc(CC#N)cc4)C4(CC4)C3)c12 [Example 328, (4-{2-[7-(5-Methyl-7H-pyrrolo[2,3-d]pyrimidin-4-yl)-4,7-diaza-spiro[2.5]oct-4-yl]-2-oxo-ethyl}-phenyl)-acetonitrile] | – | – | – | – | > 500 nM | > 500 nM | > 500 nM | 100 to 500 nM | –
4 | O=C(Cc1ccncc1)N1[C@@H]2CC[C@@H]1CN(c1ncnc3[nH]ccc13)C2 [Example 171, 2-Pyridin-4-yl-1-[3-(7H-pyrrolo[2,3-d]pyrimidin-4-yl)-3,8-diaza-bicyclo[3.2.1]oct-8-yl]-ethanone] | > 500 nM | 100 to 500 nM | 100 to 500 nM | > 500 nM | – | – | – | – | –
5 | O=C(C1CCOC1)N1CCN(c2ncnc3[nH]ccc23)CC12CC2 (centres unmarked) [Example 7, [7-(7H-Pyrrolo[2,3-d]pyrimidin-4-yl)-4,7-diazaspiro[2.5]oct-4-yl]-(tetrahydrofuran-3-yl)methanone] | > 500 nM | < 100 nM | 100 to 500 nM | 100 to 500 nM | – | – | – | – | –
6 | Cc1ccc(C(=O)N2CCN(c3ncnc4[nH]ccc34)CC23CC3)cc1C(=O)Nc1cccc(C(F)(F)F)c1 [Example 41, 2-Methyl-5-[7-(7H-pyrrolo[2,3-d]pyrimidin-4-yl)-4,7-diazaspiro[2.5]octane-4-carbonyl]-N-(3-trifluoromethylphenyl)benzamide] | > 500 nM | > 500 nM | 100 to 500 nM | > 500 nM | – | – | – | – | –
7 | N#Cc1ccc(CS(=O)(=O)N2CCN(c3ncnc4[nH]ccc34)CC23CC3)cc1 [Example 79, 4-[7-(7H-Pyrrolo[2,3-d]pyrimidin-4-yl)-4,7-diaza-spiro[2.5]octane-4-sulfonylmethyl]-benzonitrile] | > 500 nM | < 100 nM | < 100 nM | 100 to 500 nM | – | – | – | – | –
8 | N#CCCCC(=O)N1CCN(c2ncnc3[nH]ccc23)CC12CC2 [Example 298, 5-Oxo-5-[7-(7H-pyrrolo[2,3-d]pyrimidin-4-yl)-4,7-diaza-spiro[2.5]oct-4-yl]-pentanenitrile] | – | – | – | – | 100 to 500 nM | < 100 nM | < 100 nM | < 100 nM | –
9 | S=C(c1cc2c(s1)CCC2)N1CCN(c2ncnc3[nH]ccc23)CC12CC2 [Example 440, (5,6-Dihydro-4H-cyclopenta[b]thiophen-2-yl)-[7-(7H-pyrrolo[2,3-d]Pyrimidin-4-yl)-4,7-diaza-spiro[2.5]oct-4-yl]-methanethione] | – | – | – | – | – | – | – | – | EC50 [1, 13]: 100 to 500 nM; EC50 [2, 14]: < 100 nM; EC50 [3, 15]: < 100 nM; EC50 [4, 16]: 100 to 500 nM
10 | O=C(c1cccc2cc(O)ccc12)N1[C@@H]2CC[C@@H]1CN(c1ncnc3[nH]ccc13)C2 [Example 359, (6-Hydroxy-naphthalen-1-yl)-[3-(7H-pyrrolo[2,3-d]pyrimidin-4-yl)-3,8-diaza-bicyclo[3.2.1]oct-8-yl]-methanone] | – | – | – | – | 100 to 500 nM | < 100 nM | < 100 nM | < 100 nM | –
11 | COc1cc(S(N)(=O)=O)ccc1C(=O)N1CCN(c2ncnc3[nH]ccc23)CC12CC2 [Example 389, 3-Methoxy-4-[7-(7H-pyrrolo[2,3-d]pyrimidin-4-yl)-4,7-diaza-spiro[2.5]octane-4-carbonyl]-benzenesulfonamide] | – | – | – | – | 100 to 500 nM | < 100 nM | < 100 nM | < 100 nM | –
12 | Cc1ccsc1C(=O)N1[C@@H]2CC[C@@H]1CN(c1ncnc3[nH]ccc13)C2 [Example 243, (3-Methyl-thiophen-2-yl)-[3-(7H-pyrrolo[2,3-d]pyrimidin-4-yl)-3,8-diaza-bicyclo[3.2.1]oct-8-yl]-methanone] | – | – | – | – | > 500 nM | < 100 nM | 100 to 500 nM | 100 to 500 nM | –
13 | COCCC(=O)N1CCN(c2ncnc3[nH]ccc23)CC12CC2 [Example 456, 3-Methoxy-1-[7-(7H-pyrrolo[2,3-d]pyrimidin-4-yl)-4,7-diaza-spiro[2.5]oct-4-yl]-propan-1-one] | – | – | – | – | – | – | – | – | EC50 [1, 13]: > 500 nM; EC50 [2, 14]: 100 to 500 nM; EC50 [3, 15]: 100 to 500 nM; EC50 [4, 16]: 100 to 500 nM
14 | N#Cc1cccc(CC(=O)N2CCN(c3ncnc4[nH]ccc34)CC23CC3)c1 [Example 25, 3-{2-Oxo-2-[7-(7H-pyrrolo[2,3-d]pyrimidin-4-yl)-4,7-diazaspiro[2.5]oct-4-yl]-ethyl}benzonitrile] | > 500 nM | < 100 nM | 100 to 500 nM | 100 to 500 nM | – | – | – | – | –
15 | O=C(c1ccc(S(=O)(=O)NCC2CCCO2)cc1)N1CCN(c2ncnc3[nH]ccc23)CC12CC2 (centres unmarked) [Example 394, 4-[7-(7H-Pyrrolo[2,3-d]pyrimidin-4-yl)-4,7-diaza-spiro[2.5]octane-4-carbonyl]-N-(tetrahydro-furan-2-ylmethyl)-benzenesulfonamide] | – | – | – | – | 100 to 500 nM | < 100 nM | < 100 nM | 100 to 500 nM | –
16 | NS(=O)(=O)c1csc(C(=O)N2CCN(c3ncnc4[nH]ccc34)CC23CC3)c1 [Example 372, 5-[7-(7H-Pyrrolo[2,3-d]pyrimidin-4-yl)-4,7-diaza-spiro[2.5]octane-4-carbonyl]-thiophene-3-sulfonic acid amide] | – | – | – | – | < 100 nM | < 100 nM | < 100 nM | < 100 nM | –
17 | COc1cnc2[nH]ccc2c1N1CCN(C(=O)Cc2ccc(C#N)cc2)C2(CC2)C1 [Example 295, 4-{2-[7-(5-Methoxy-1H-pyrrolo[2,3-b]pyridin-4-yl)-4,7-diaza-spiro[2.5]oct-4-yl]-2-oxo-ethyl}-benzonitrile] | – | – | – | – | > 500 nM | < 100 nM | 100 to 500 nM | < 100 nM | –
18 | Cc1ccc(C(=O)N2C[C@@H]3C[C@H]2CN3c2ncnc3[nH]ccc23)s1 [Example 265, (5-Methyl-thiophen-2-yl)-[5-(7H-pyrrolo[2,3-d]pyrimidin-4-yl)-2,5-diaza-bicyclo[2.2.1]hept-2-yl]-methanone] | – | – | – | – | > 500 nM | > 500 nM | > 500 nM | > 500 nM | –
19 | O=C(C1Cc2ccccc21)N1C2CCC1CN(c1ncnc3[nH]ccc13)C2 (centres unmarked) [Example 132, Bicyclo[4.2.0]octa-1(6),2,4-trien-7-yl-[3-(7H-pyrrolo[2,3-d]pyrimidin-4-yl)-3,8-diaza-bicyclo[3.2.1]oct-8-yl]-methanone] | > 500 nM | 100 to 500 nM | 100 to 500 nM | 100 to 500 nM | – | – | – | – | –
20 | N#Cc1ccc(C(=O)N2CCN(c3ccnc4[nH]ccc34)CC23CC3)cc1 [Example 226, 4-[7-(1H-Pyrrolo[2,3-b]pyridin-4-yl)-4,7-diaza-spiro[2.5]octane-4-carbonyl]-benzonitrile] | – | – | – | – | > 500 nM | 100 to 500 nM | < 100 nM | > 500 nM | –
